# Source: ChEMBL document CHEMBL4038272, “Synthesis and biological evaluation of novel podophyllotoxin-NSAIDs conjugates as multifunctional anti-MDR agents against resistant human hepatocellular carcinoma Bel-7402/5-FU cells” (Eur J Med Chem, 2017)
# The source made the active and inactive calls. The rule behind the calls is not given here.
# How the values were obtained:
# Bel7402/5-FU [1] = assay: Effect on CDK1 expression in human Bel7402/5-FU cells assessed as ratio of CDK1 to beta-actin level at 0.1 uM after 48 hrs by Western blot analysis (reference value: 0.33); format: functional
# Bel7402/5-FU [2] = assay: Reduction in microtubule density in human Bel7402/5-FU cells at 0.1 uM after 24 to 48 hrs by DAPI staining based immunofluorescence microscopic method; format: functional, cell-based
# Bel7402/5-FU [3] = assay: Induction of apoptosis in human Bel7402/5-FU cells assessed as ratio of cleaved caspase-8 to beta-actin level at 0.1 uM after 48 hrs by Western blot analysis (reference value: 0.17); format: functional
# Bel7402/5-FU [4] = assay: Induction of apoptosis in human Bel7402/5-FU cells assessed as live cells at 0.1 uM after 48 hrs by Annexin V-APC/7-AAD staining based flow cytometry (reference value: 91.08%); format: functional
# [5] = biological target: Signal transducer and activator of transcription 3 (Homo sapiens) (UniProt P40763); assay: Effect on STAT3 phosphorylation in human Bel7402/5-FU cells assessed as ratio of phosphorylated STAT3 to beta-actin level at 0.1 uM after 48 hrs by Western blot analysis (reference value: 0.3); format: cell-based
# Signal transducer and activator of transcription 3 (Homo sapiens), sequence (P40763 whole entry): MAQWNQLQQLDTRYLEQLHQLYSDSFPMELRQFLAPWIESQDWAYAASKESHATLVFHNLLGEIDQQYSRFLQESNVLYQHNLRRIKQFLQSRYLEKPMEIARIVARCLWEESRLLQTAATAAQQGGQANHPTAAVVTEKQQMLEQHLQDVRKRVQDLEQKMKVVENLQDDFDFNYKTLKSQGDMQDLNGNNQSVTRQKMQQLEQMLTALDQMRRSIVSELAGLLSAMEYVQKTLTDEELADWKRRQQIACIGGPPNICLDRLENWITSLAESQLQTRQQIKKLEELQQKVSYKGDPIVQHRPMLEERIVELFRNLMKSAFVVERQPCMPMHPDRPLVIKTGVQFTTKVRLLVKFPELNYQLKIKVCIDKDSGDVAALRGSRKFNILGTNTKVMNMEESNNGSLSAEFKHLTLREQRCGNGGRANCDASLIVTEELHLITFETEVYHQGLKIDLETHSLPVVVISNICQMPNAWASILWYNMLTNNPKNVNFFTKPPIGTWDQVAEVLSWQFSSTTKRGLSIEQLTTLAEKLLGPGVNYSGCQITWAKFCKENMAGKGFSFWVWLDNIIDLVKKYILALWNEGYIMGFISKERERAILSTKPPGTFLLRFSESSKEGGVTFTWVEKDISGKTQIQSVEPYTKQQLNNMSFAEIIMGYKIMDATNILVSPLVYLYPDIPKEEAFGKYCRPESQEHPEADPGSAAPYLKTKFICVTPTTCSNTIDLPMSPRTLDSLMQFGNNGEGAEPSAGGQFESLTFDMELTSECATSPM
# Bel7402/5-FU [6] = assay: Antiproliferative activity against human Bel7402/5-FU cells after 72 hrs by CCK-8 assay; format: functional, cell-based
# Bel7402/5-FU [7] = assay: Effect on CDK2 expression in human Bel7402/5-FU cells assessed as ratio of CDK2 to beta-actin level at 0.1 uM after 48 hrs by Western blot analysis (reference value: 0.43); format: functional
# Bel7402/5-FU [8] = assay: Induction of apoptosis in human Bel7402/5-FU cells assessed as late apoptotic cells at 0.1 uM after 48 hrs by Annexin V-APC/7-AAD staining based flow cytometry (reference value: 3%); format: functional
# Bel7402/5-FU [9] = assay: Effect on MMP2 expression in human Bel7402/5-FU cells assessed as ratio of MMP2 to beta-actin level at 0.1 uM after 48 hrs by Western blot analysis (reference value: 0.3); format: functional
# Bel7402/5-FU [10] = assay: Antimigratory activity in human Bel7402/5-FU cells at 0.1 uM after 24 hrs by wound healing assay; format: functional, cell-based
# Bel7402/5-FU [11] = assay: Cell cycle arrest in human Bel7402/5-FU cells assessed as accumulation at G2 phase at 0.1 uM after 48 hrs by propidium iodide staining based flow cytometry (reference value: 35.16%); format: functional
# Bel-7402 = assay: Antiproliferative activity against human Bel7402 cells after 72 hrs by CCK-8 assay; format: functional, cell-based; settings: Bel-7402, 72 h
# Bel7402/5-FU [12] = assay: Cell cycle arrest in human Bel7402/5-FU cells assessed as accumulation at G1 phase at 0.1 uM after 48 hrs by propidium iodide staining based flow cytometry (reference value: 52.21%); format: functional
# Bel7402/5-FU [13] = assay: Effect on iNOS expression in human Bel7402/5-FU cells assessed as ratio of iNOS to beta-actin level at 0.1 uM after 48 hrs by Western blot analysis (reference value: 0.13); format: functional
# Bel7402/5-FU [14] = assay: Effect on COX2 expression in human Bel7402/5-FU cells assessed as ratio of COX2 to beta-actin level at 0.1 uM after 48 hrs by Western blot analysis (reference value: 0.36); format: functional
# Bel7402/5-FU [15] = assay: Effect on VEGFR2 expression in human Bel7402/5-FU cells assessed as ratio of VEGFR2 to beta-actin level at 0.1 uM after 48 hrs by Western blot analysis (reference value: 0.25); format: functional
# Bel7402/5-FU [16] = assay: Effect on cyclinA expression in human Bel7402/5-FU cells assessed as ratio of cyclinA to beta-actin level at 0.1 uM after 48 hrs by Western blot analysis (reference value: 0.39); format: functional
# [17] = biological target: Mitogen-activated protein kinase; ERK1/ERK2 (Homo sapiens) (UniProt P27361+P28482); assay: Effect on ERK1/2 phosphorylation in human Bel7402/5-FU cells assessed as ratio of phosphorylated ERK1/2 to beta-actin level at 0.1 uM after 48 hrs by Western blot analysis (reference value: 0.59); format: cell-based
# Mitogen-activated protein kinase; ERK1/ERK2 (Homo sapiens), sequence (P27361 whole entry, looked up): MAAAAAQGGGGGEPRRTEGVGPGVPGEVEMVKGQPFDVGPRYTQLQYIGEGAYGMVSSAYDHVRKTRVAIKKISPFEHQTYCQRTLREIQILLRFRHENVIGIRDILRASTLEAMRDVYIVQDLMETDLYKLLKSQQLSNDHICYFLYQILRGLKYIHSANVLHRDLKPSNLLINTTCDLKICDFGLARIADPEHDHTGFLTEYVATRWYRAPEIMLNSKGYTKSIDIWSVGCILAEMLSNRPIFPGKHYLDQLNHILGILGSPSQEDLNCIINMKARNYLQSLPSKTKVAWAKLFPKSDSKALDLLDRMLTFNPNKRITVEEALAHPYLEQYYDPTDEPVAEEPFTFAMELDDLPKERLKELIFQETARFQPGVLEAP
# Mitogen-activated protein kinase; ERK1/ERK2 (Homo sapiens), sequence (P28482 whole entry, looked up): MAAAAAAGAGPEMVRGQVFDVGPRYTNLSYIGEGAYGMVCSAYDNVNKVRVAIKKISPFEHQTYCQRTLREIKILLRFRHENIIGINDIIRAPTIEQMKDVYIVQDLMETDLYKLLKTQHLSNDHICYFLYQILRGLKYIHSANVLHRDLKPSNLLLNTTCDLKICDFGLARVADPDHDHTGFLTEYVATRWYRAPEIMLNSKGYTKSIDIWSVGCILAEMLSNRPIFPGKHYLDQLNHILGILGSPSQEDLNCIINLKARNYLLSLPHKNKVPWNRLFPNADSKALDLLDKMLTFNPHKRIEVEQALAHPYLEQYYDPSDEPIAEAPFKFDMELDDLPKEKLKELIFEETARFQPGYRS
# Bel7402/5-FU [18] = assay: Effect on COX1 expression in human Bel7402/5-FU cells assessed as ratio of COX1 to beta-actin level at 0.1 uM after 48 hrs by Western blot analysis (reference value: 0.48); format: functional
# [19] = biological target: RAC-alpha serine/threonine-protein kinase (Homo sapiens) (UniProt P31749); assay: Effect on AKT phosphorylation in human Bel7402/5-FU cells assessed as ratio of phosphorylated AKT to beta-actin level at 0.1 uM after 48 hrs by Western blot analysis (reference value: 0.39); format: cell-based
# RAC-alpha serine/threonine-protein kinase (Homo sapiens), sequence (P31749 whole entry): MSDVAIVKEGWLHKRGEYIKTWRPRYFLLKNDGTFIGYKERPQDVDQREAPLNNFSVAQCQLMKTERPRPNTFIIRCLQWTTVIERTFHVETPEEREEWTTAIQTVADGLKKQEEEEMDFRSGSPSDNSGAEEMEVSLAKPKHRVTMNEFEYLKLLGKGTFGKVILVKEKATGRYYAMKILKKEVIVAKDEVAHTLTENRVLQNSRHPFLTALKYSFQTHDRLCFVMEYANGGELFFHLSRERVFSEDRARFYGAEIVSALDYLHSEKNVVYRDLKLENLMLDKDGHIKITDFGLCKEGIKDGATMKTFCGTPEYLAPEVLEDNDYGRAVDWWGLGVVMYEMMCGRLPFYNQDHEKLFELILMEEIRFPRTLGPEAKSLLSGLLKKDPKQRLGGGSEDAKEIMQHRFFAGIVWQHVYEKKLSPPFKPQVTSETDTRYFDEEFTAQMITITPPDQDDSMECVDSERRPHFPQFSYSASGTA
# Bel7402/5-FU [20] = assay: Cell cycle arrest in human Bel7402/5-FU cells assessed as accumulation at S phase at 0.1 uM after 48 hrs by propidium iodide staining based flow cytometry (reference value: 12.62%); format: functional
# Bel7402/5-FU [21] = assay: Induction of apoptosis in human Bel7402/5-FU cells assessed as ratio of cleaved PARP to beta-actin level at 0.1 uM after 48 hrs by Western blot analysis (reference value: 0.2); format: functional
# Bel7402/5-FU [22] = assay: Induction of apoptosis in human Bel7402/5-FU cells assessed as reduction in cell number at 0.1 uM after 24 hrs by Hoechst 33342 staining based fluorescent microscopic method; format: functional
# Bel7402/5-FU [23] = assay: Effect on cyclinB1 expression in human Bel7402/5-FU cells assessed as ratio of cyclinB1 to beta-actin level at 0.1 uM after 48 hrs by Western blot analysis (reference value: 0.53); format: functional
# L02 = assay: Antiproliferative activity against human LO2 cells after 72 hrs by CCK-8 assay; format: cell-based; settings: L02, 72 h
# Bel7402/5-FU [24] = assay: Induction of microtubule disruption in human Bel7402/5-FU cells at 0.1 uM after 24 to 48 hrs by DAPI staining based immunofluorescence microscopic method; format: functional, cell-based
# Bel7402/5-FU [25] = assay: Induction of apoptosis in human Bel7402/5-FU cells assessed as condensed nuclei at 0.1 uM after 24 hrs by Hoechst 33342 staining based fluorescent microscopic method; format: functional, cell-based
# Bel7402/5-FU [26] = assay: Induction of apoptosis in human Bel7402/5-FU cells assessed as necrotic cells at 0.1 uM after 48 hrs by Annexin V-APC/7-AAD staining based flow cytometry (reference value: 0.58%); format: functional
# Bel7402/5-FU [27] = assay: Induction of apoptosis in human Bel7402/5-FU cells at 0.1 uM after 24 hrs by Hoechst 33342 staining based fluorescent microscopic method; format: functional, cell-based
# Bel7402/5-FU [28] = assay: Induction of apoptosis in human Bel7402/5-FU cells assessed as early apoptotic cells at 0.1 uM after 48 hrs by Annexin V-APC/7-AAD staining based flow cytometry (reference value: 5.24%); format: functional
# [29] = Resistant factor, ratio of IC50 for human Bel7402/5-FU cells to IC50 for human Bel7402 cells; format: functional
# Bel7402/5-FU [30] = assay: Effect on P-gp expression in human Bel7402/5-FU cells assessed as ratio of P-gp to beta-actin level at 0.1 uM after 48 hrs by Western blot analysis (reference value: 0.59); format: functional
# Bel7402/5-FU [31] = assay: Effect on E-cadherin expression in human Bel7402/5-FU cells assessed as ratio of E-cadherin to beta-actin level at 0.1 uM after 48 hrs by Western blot analysis (reference value: 0.2); format: functional
# Bel7402/5-FU [32] = assay: Induction of apoptosis in human Bel7402/5-FU cells assessed as morphological changes at 0.1 uM after 24 hrs by Hoechst 33342 staining based fluorescent microscopic method; format: functional, cell-based
# Bel7402/5-FU [33] = assay: Induction of apoptosis in human Bel7402/5-FU cells assessed as ratio of cleaved caspase-9 to beta-actin level at 0.1 uM after 48 hrs by Western blot analysis (reference value: 0.17); format: functional
# Bel7402/5-FU [34] = assay: Induction of apoptosis in human Bel7402/5-FU cells assessed as ratio of cleaved caspase-3 to beta-actin level at 0.1 uM after 48 hrs by Western blot analysis (reference value: 0.19); format: functional
# Bel7402/5-FU [35] = assay: Effect on MRP1 expression in human Bel7402/5-FU cells assessed as ratio of MRP1 to beta-actin level at 0.1 uM after 48 hrs by Western blot analysis (reference value: 0.58); format: functional
structure (smiles),measurement,setting,value
COc1cc([C@@H]2c3cc4c(cc3[C@H](OC(=O)c3ccccc3OC(C)=O)[C@H]3COC(=O)[C@H]23)OCO4)cc(OC)c1OC,Ratio,Bel7402/5-FU [1],0.28
same,Activity,Bel7402/5-FU [2],Active
same,Ratio,Bel7402/5-FU [3],0.57
same,Activity,Bel7402/5-FU [4],65.12%
same,Ratio,[5],0.17
same,IC50,Bel7402/5-FU [6],65 nM
same,Ratio,Bel7402/5-FU [7],0.39
same,Activity,Bel7402/5-FU [8],24.2%
same,Ratio,Bel7402/5-FU [9],0.16
same,Activity,Bel7402/5-FU [10],Active
same,Activity,Bel7402/5-FU [11],58.28%
same,IC50,Bel-7402,199 nM
same,Activity,Bel7402/5-FU [12],17.03%
same,Ratio,Bel7402/5-FU [13],0.16
same,Ratio,Bel7402/5-FU [14],0.14
same,Ratio,Bel7402/5-FU [15],0.1
same,Ratio,Bel7402/5-FU [16],0.2
same,Ratio,[17],0.19
same,Ratio,Bel7402/5-FU [18],0.31
same,Ratio,[19],0.29
same,Activity,Bel7402/5-FU [20],24.69%
same,Ratio,Bel7402/5-FU [21],0.47
same,Activity,Bel7402/5-FU [22],Active
same,Ratio,Bel7402/5-FU [23],0.09
same,IC50,L02,90 nM
same,Activity,Bel7402/5-FU [24],Active
same,Activity,Bel7402/5-FU [25],Active
same,Activity,Bel7402/5-FU [26],5.23%
same,Activity,Bel7402/5-FU [27],Active
same,Activity,Bel7402/5-FU [28],5.45%
same,Ratio IC50,[29],0.32
same,Ratio,Bel7402/5-FU [30],0.52
same,Ratio,Bel7402/5-FU [31],0.31
same,Activity,Bel7402/5-FU [32],Active
same,Ratio,Bel7402/5-FU [33],0.57
same,Ratio,Bel7402/5-FU [34],0.53
same,Ratio,Bel7402/5-FU [35],0.31
